Measurements published in US8877798B2, “1-aryl-3-azabicyclo[3.1.0]hexanes: preparation and use to treat neuropsychiatric disorders” (priority 2005, dated 2014).
Read-outs that look alike come from different tables or passages of the source.

What was measured:
SERT = SERT (Homo sapiens (Human), UniProt P31645); experiment: SERT binding
NET = NET (Homo sapiens (Human), UniProt P23975); experiment: NET binding
DAT = DAT (Homo sapiens (Human), UniProt Q01959); experiment: DAT binding
[1] = target: 5-HT uptake, rat brain synaptosomes (Rattus norvegicus (Rat), UniProt P31652); experiment: 5-HT uptake inhibition in rat brain synaptosomes; type: biochemical
Procedure: (§1) The effects of exemplary compounds of the invention on the cellular uptake of norepinephrine (NE), dopamine (DA) and serotonin (5-HT) were tested in preparations of synaptosomes from different rat brain regions using the previously-reported techniques referenced below.
(§2) Whole brains were obtained from normal rats. Synaptosomal preparations were made from either whole brain (5-HT), striatum (DA) or hypothalamus (NE) by gentle disruption in 10 volumes (w/v) of 0.32 M sucrose (0-4° C.) using a Teflon-glass homogenizer. The homogenate was then centrifuged at 1000×g for 10 min. The supernatant was retained and centrifuged at 23000 g for 20 min. The resulting pellet was gently resuspended in 200 volumes of 0.32 M sucrose (0-4° C.) using the Teflon-glass homogenizer. Aliquots (250 μL) of this preparation were added to tubes, along with 0.2 μCi/mL of [^3H]5-HT, [^3H]DA, or [^3H]NE, 200 μL of the test compounds (to yield final concentrations of 100 nM, 300 nM, 1 μM, 3 μM, 10 μM, 30 μM or 100 μM) and 1 mL of Krebs-Ringer bicarbonate buffer (pH 7.4). The mixtures were incubated for either 15 (DA and 5-HT uptake) or 20 (NE uptake) minutes at 37° C. At the end of this period, the assay was terminated by rapid filtration over Whatman GF/C glass fiber filters. The filters were rinsed 3 times with 4 ml of Krebs-Ringer bicarbonate buffer (0-4° C.), and the radioactivity retained on the filters measured by liquid scintillation spectrometry.
(§3) Each assay was run according to the description of the respective publications cited above, and according to the following parameters/reagents/conditions.
(§4) In each experiment, the respective reference compound was tested concurrently with the test compounds in order to assess the assay suitability. It was tested at several concentrations (for IC50 value determination). The assay was considered valid if the suitability criteria were met, in accordance with the corresponding Standard Operating Procedure.
Individual and mean values are presented with the results. The IC50 values (concentration causing a half-maximal inhibition of control values) were determined by non-linear regression analysis of the inhibition curves using Hill equation curve fitting.

[2] = target: dopamine (DA) uptake, rat striatum synaptosomes (Rattus norvegicus (Rat), UniProt P23977); experiment: Dopamine (DA) uptake inhibition in rat striatum synaptosomes; type: biochemical
Chain of dopamine (DA) uptake, rat striatum synaptosomes (P23977 whole entry): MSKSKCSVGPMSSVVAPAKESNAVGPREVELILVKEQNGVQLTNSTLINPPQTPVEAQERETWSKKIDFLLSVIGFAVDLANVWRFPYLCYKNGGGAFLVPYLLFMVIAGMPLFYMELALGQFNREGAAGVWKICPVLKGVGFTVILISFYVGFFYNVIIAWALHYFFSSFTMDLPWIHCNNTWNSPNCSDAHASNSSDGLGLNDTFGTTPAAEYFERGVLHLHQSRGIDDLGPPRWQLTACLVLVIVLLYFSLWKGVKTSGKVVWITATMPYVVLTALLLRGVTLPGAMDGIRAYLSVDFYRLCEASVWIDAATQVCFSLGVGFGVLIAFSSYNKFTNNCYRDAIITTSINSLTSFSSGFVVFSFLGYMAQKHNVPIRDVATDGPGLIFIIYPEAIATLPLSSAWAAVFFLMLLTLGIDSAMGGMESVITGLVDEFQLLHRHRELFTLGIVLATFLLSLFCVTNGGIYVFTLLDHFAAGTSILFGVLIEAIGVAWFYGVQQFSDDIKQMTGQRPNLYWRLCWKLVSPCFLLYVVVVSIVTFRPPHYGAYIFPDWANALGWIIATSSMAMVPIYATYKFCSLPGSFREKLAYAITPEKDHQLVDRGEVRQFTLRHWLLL
Procedure: as §1, §2, §3, §4
The results of these uptake inhibition assays are expressed below as a percent of control values obtained in the […] of the test compounds. Individual and mean values are presented with the results. The IC50 values (concentration causing a half-maximal inhibition of control values) were determined by non-linear regression analysis of the inhibition curves using Hill equation curve fitting.

[3] = system: reuptake of norepinephrine, serotonin and dopamine; details: reported in the literature (Skolnick et al. 2003); cited from earlier work
[4] = [3H]5-HT, rat brain synaptosomes, 15 min at 37° C., read-out: Uptake IC50 (nM) 5-HT

Compound	Ki (SERT; read-out: Binding SERT Ki) [nM]	Ki (NET; read-out: Binding NET Ki) [nM]	Ki (DAT; read-out: Binding DAT Ki) [nM]	IC50 [1, 4] [nM]	IC50 [2] [nM]	other results
Cc1ccc(C23CC2CN(C)C3)cc1F (stereo not shown)	830	260	270	110	700	
CN1CC2CC2(c2ccc(F)cc2F)C1 (stereo not shown)		6600		1100	7400	
CCCCN1CC2C[C@]2(c2ccc(Cl)c(Cl)c2)C1 (stereo partly shown)	8900	1100	215	2600	1200	
CN1CC2CC2(c2ccc(Cl)cc2Cl)C1 (stereo not shown)	500	6200		520	10000	
Cc1ccc([C@]23CC2CN(C)C3)cc1F (stereo partly shown)				702	917	
CC(C)N1CC2C[C@@]2(c2ccc(Cl)c(Cl)c2)C1 (stereo partly shown)	330	510	25	170	330	
CN1CC2C[C@@]2(c2ccc(F)c(Cl)c2)C1 (stereo partly shown)				362	494	
CN1CC2C[C@]2(c2ccc(F)c(Cl)c2)C1 (stereo partly shown)				835		
CCCCN1CC2CC2(c2ccc(Cl)c(Cl)c2)C1 (stereo not shown)	6100	2200	240	1200	78	
CN1CC2CC2(c2cccc3ccccc23)C1 (stereo not shown)				119	512	
Clc1ccc(C23CNCC2C3)cc1Cl (stereo not shown) [1-(3,4-dichlorophenyl)-3-azabicyclo[3.1.0]hexane]						inhibition of reuptake of norepinephrine, serotonin and dopamine [3]: inhibit reuptake of norepinephrine, serotonin and dopamine
Fc1cc([C@]23CNCC2C3)ccc1Cl (stereo partly shown)				252	420	
Clc1ccc(C23CC2CN(C2CC2)C3)cc1Cl (stereo not shown)	3700	9500	1700	2600	1500	
CCCN1CC2CC2(c2ccc(Cl)c(Cl)c2)C1 (stereo not shown)	1670	1830	250	470	1000	
CN1CC2CC2(c2ccc3ccccc3c2)C1 (stereo not shown)	6	520	68	31	350	
CCCCN1CC2C[C@@]2(c2ccc(Cl)c(Cl)c2)C1 (stereo partly shown)	7600	1900	395	3000	2200	
Fc1ccc(C23CNCC2C3)cc1Cl (stereo not shown)	230	1700	680	310	1400	
CN1CC2C[C@@]2(c2ccc(Cl)c(F)c2)C1 (stereo partly shown)				413	437	
Cc1cc(C23CC2CN(C)C3)ccc1F (stereo not shown)	540	920	2200	200	370	
CCCN1CC2C[C@@]2(c2ccc(Cl)c(Cl)c2)C1 (stereo partly shown)	2000	4000	220	590	1800	
COc1ccc2cc(C34CC3CN(C)C4)ccc2c1 (stereo not shown)				14	91	
Cc1ccc(C23CNCC2C3)cc1F (stereo not shown)				266	457	

Compound	Ki (SERT; read-out: Binding SERT Ki) [nM]	Ki (NET; read-out: Binding NET Ki) [nM]	Ki (DAT; read-out: Binding DAT Ki) [nM]	IC50 [1, 4] [nM]	IC50 [2] [nM]	other results
CN1CC2C[C@]2(c2ccc3ccccc3c2)C1 (stereo partly shown)				117	147	
CN1CC2C[C@@]2(c2cccc3ccccc23)C1 (stereo partly shown)					903	
CN1CC2CC2(c2ccc(F)c(F)c2)C1 (stereo not shown)	1600	990	1900	400	1800	
CN1CC2C[C@@]2(c2ccc(Cl)c(Cl)c2)C1 (stereo partly shown)	16	81	105	23	120	
CN1CC2CC2(c2ccc([N+](=O)[O-])c(Cl)c2)C1 (stereo not shown)	710			790		
CCN1CC2C[C@@]2(c2ccc(Cl)c(Cl)c2)C1 (stereo partly shown)	88	32	13	56	80	
c1ccc2cc([C@]34CNCC3C4)ccc2c1 (stereo partly shown)					49	IC50 [1]: 65 nM
CCOc1ccc2cc(C34CC3CN(C)C4)ccc2c1 (stereo not shown)				210	360	
CN1CC2C[C@]2(c2ccc(Cl)c(Cl)c2)C1 (stereo partly shown)	125	490	62	87	130	
c1ccc2cc([C@@]34CNCC3C4)ccc2c1 (stereo partly shown)					98	IC50 [1]: 170 nM
CCN1CC2C[C@]2(c2ccc(Cl)c(Cl)c2)C1 (stereo partly shown)	113	585	46	45	190	
CC(C)N1CC2C[C@]2(c2ccc(Cl)c(Cl)c2)C1 (stereo partly shown)	132	5150	72	100	430	
CCCN1CC2C[C@]2(c2ccc(Cl)c(Cl)c2)C1 (stereo partly shown)	2400	1070	170	390	770	
CC(C)N1CC2CC2(c2ccc(Cl)c(Cl)c2)C1 (stereo not shown)	124	827	39	30	260	
CN1CC2C[C@@]2(c2ccc3ccccc3c2)C1 (stereo partly shown)				< 10	82	
Fc1ccc([C@]23CNCC2C3)cc1Cl (stereo partly shown)				186	572	
Cc1ccc([C@@]23CC2CN(C)C3)cc1F (stereo partly shown)				836	383	
COc1ccc2cc(C34CNCC3C4)ccc2c1 (stereo not shown)				82	208	
Cc1ccc([C@]23CNCC2C3)cc1F (stereo partly shown)				133	401	
CC(C)(C)N1CC2CC2(c2ccc(Cl)c(Cl)c2)C1 (stereo not shown)						Ki (SERT): 800 nM; Ki (NET): 9300 nM; Ki (DAT): 420 nM; IC50 [1]: 240 nM; IC50 ([2]; [3H]DA, rat striatum synaptosomes, 15 min at 37° C., read-out: Uptake IC50 (nM) DA): 1500 nM
CCOc1ccc2cc(C34CNCC3C4)ccc2c1 (stereo not shown)				700	563	
CN1CC2CC2(c2ccc(F)c(Cl)c2)C1 (stereo not shown)	190	350	640	79	770	
